Laboratory results taken from patent publication US11021500B2, “Process for preparing optically active 2,3-bisphosphino-substituted quinoxalines” (Nippon Chemical Industrial Co., Ltd., priority 2017, dated 2021).

melting point: 102 to 103 °C
Compound: C[P@@](c1nc2ccccc2nc1[P@](C)C(C)(C)C)C(C)(C)C [Compound (a3), (R,R)-2,3-bis(tert-butylmethylphosphino)quinoxaline]
